The target in data set [1] is T1, human A2A adenosine receptors (Homo sapiens, UniProt P29274).
T1 construct: expressed in transfected cells; host or cells: CHO cells
As to the kind of experiment: Displacement of [^3H]CGS21680 binding, human A2A adenosine receptors in CHO cells (agonist radioligand). As to conditions: human A2A, CHO cells, [^3H]CGS21680; read-out: Ki(A2A). Displacement of [^3H]CGS21680 binding to human A2A adenosine receptors exp. in CHO cells.

The target in another data set is T2, human A1 receptors (Homo sapiens, UniProt P30542).
T2 construct: expressed in transfected cells; host or cells: CHO cells
T2 sequence (P30542 1-326): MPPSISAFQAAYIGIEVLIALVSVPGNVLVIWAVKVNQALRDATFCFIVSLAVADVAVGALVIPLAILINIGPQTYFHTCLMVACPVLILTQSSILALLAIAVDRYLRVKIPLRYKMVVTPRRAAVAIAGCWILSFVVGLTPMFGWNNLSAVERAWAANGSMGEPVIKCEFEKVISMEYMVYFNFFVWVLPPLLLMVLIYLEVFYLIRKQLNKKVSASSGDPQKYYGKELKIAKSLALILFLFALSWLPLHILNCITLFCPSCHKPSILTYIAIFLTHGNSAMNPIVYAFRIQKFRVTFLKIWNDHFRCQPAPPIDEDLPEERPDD
As to the kind of experiment: [^3H] DPCPX binding to human A1 receptors expressed in CHO cells (antagonist radioligand). As to conditions: human A1, CHO cells, antagonist radioligand; read-out: [^3H] DPCPX binding to human A1 receptors expressed in CHO cells Ki. The protocol:
Binding assay methodology for the human data with antagonist radioligands. […] Arch. […] The cells were grown adherently and maintained in Dulbecco's Modified Eagles Medium with nutrient mixture F12 (DMEM/F12) without nucleosides, containing 10% fetal calf serum, penicillin (100 U/ml), streptomycin (100 μg/ml), L-glutamine (2 mM) and Geneticin (G418, 0.2 mg/ml) at 37° C. in 5% CO2/95% air. Cells were split 2 or 3 times weekly at a ratio between 1:5 and 1:20. For membrane preparation the culture medium was removed and the cells were washed with PBS and scraped off T75 flasks in ice-cold hypotonic buffer (5 mM Tris HCl, 2 mM EDTA, pH 7.4). The cell suspension was homogenized with Polytron and the homogenate was spun for 10 min at 1,000×g. The supernatant was then centrifuged for 30 min at 100,000×g. The membrane pellet was resuspended in 50 mM Tris HCl buffer pH 7.4 (for A3 adenosine receptors: 50 mM Tris HCl, 10 mM MgCl2, 1 mM EDTA) and incubated with 3 UI/ml of Adenosine deaminase for 30 min at 37° C. Then the suspension was frozen at −80° C. HEK 293 cells transfected with the human recombinant A2B adenosine receptor were obtained from Receptor Biology, Inc. (Beltsville, Md., USA).
Displacement experiments were performed for 120 min at 25° C. in 0.2 ml of 50 mM Tris HCl buffer pH 7.4 containing 1 nM [3H]-DPCPX, diluted membranes (50 μg of protein/assay) and at least 6-8 different concentrations of antagonists studied. Non-specific binding was determined in the presence of 10 μM of CHA and this was always ≦10% of the total binding.

For the next data set, the target named is T3, human A2A receptors (Homo sapiens, UniProt P29274).
T3 construct: expressed in transfected cells; host or cells: CHO cells
As to the kind of experiment: [^3H] SCH58261 binding to human A2A receptors expressed in CHO cells (antagonist radioligand). As to conditions: human A2A, CHO cells, antagonist radioligand; read-out: [^3H] SCH58261 binding to human A2A receptors expressed in CHO cells Ki. The protocol: (§1) Binding assay methodology for the human data with antagonist radioligands. […] Arch. Pharmacol. 357: 1-9, (1998). The cells were grown adherently and maintained in Dulbecco's Modified Eagles Medium with nutrient mixture F12 (DMEM/F12) without nucleosides, containing 10% fetal calf serum, penicillin (100 U/ml), streptomycin (100 μg/ml), L-glutamine (2 mM) and Geneticin (G418, 0.2 mg/ml) at 37° C. in 5% CO2/95% air. Cells were split 2 or 3 times weekly at a ratio between 1:5 and 1:20. For membrane preparation the culture medium was removed and the cells were washed with PBS and scraped off T75 flasks in ice-cold hypotonic buffer (5 mM Tris HCl, 2 mM EDTA, pH 7.4). The cell suspension was homogenized with Polytron and the homogenate was spun for 10 min at 1,000×g. The supernatant was then centrifuged for 30 min at 100,000×g. The membrane pellet was resuspended in 50 mM Tris HCl buffer pH 7.4 (for A3 adenosine receptors: 50 mM Tris HCl, 10 mM MgCl2, 1 mM EDTA) and incubated with 3 UI/ml of Adenosine deaminase for 30 min at 37° C. Then the suspension was frozen at −80° C. HEK 293 cells transfected with the human recombinant A2B adenosine receptor were obtained from Receptor Biology, Inc. (Beltsville, Md., USA).
Binding of [^3H]-SCH 58261 to CHO cells transfected with the human recombinant A2A adenosine receptors (50 μg of protein/assay) was performed using 0.2 ml 50 mM Tris HCl buffer, 10 mM MgCl2 pH 7.4 and at least 6-8 different concentrations of antagonists studied for an incubation time of 30 min at 25° C.

The next data set has as its target T4, human hA2B receptors (Homo sapiens, UniProt P29275).
T4 construct: host or cells: HEK 293 cells
T4 sequence (P29275 1-332): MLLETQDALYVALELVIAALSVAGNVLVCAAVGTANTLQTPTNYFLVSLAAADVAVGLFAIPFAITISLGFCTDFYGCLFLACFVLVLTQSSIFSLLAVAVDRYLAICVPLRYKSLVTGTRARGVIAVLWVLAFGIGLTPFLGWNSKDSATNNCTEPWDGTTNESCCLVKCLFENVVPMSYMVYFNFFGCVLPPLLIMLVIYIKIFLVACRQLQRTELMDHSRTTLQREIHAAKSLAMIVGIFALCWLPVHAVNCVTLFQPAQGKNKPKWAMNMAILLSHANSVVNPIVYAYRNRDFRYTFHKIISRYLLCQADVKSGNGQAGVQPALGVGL
As to the kind of experiment: [^3H] DPCPX binding to human hA2B receptors expressed in HEK293 cells (antagonist radioligand). As to conditions: human A2B, HEK293 cells, antagonist radioligand; read-out: [^3H] DPCPX binding to human hA2B receptors expressed in HEK293 cells Ki. The protocol: as §1
Competition experiments of [^3H]-DPCPX to HEK-293 cells transfected with the human recombinant A^2B adenosine receptor were performed for 60 min at 25° C. in 0.1 ml of 50 mM Tris HCl buffer, 10 mM MgCl2, 1 mM EDTA, 0.1 mM benzamidine pH 7.4, 2 IU/ml adenosine deaminase containing 34 nM [^3H]-DPCPX, diluted membranes (20 μg of protein/assay) and at least 6-8 different concentrations of selected compounds.

The target of the next data set is T5, human A3 receptors (Homo sapiens, UniProt P0DMS8).
T5 construct: expressed in transfected cells; host or cells: CHO cells
T5 sequence (P0DMS8 1-318): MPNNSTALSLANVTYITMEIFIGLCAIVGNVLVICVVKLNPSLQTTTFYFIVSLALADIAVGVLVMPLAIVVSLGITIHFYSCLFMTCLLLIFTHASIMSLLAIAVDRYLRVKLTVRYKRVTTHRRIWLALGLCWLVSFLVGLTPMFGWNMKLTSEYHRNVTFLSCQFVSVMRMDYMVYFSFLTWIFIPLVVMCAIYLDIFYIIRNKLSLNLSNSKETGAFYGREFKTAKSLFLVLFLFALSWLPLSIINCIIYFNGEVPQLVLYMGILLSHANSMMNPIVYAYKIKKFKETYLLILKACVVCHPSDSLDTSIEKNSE
As to the kind of experiment: [^3H] MRE3008F20 binding to human A3 receptors expressed in CHO cells (antagonist radioligand). As to conditions: human A3, CHO cells, antagonist radioligand; read-out: [^3H] MRE3008F20 binding to human A3 receptors expressed in CHO cells Ki. As to the method:
as §1
Binding of [^3H]-MRE 3008F20 to CHO cells transfected with the human recombinant A3 adenosine receptors was performed according to Varani et al., 2000. Competition experiments were carried out in duplicate in a final volume of […] in test tubes containing 1 nM [^3H]-MRE 3008F20, 50 mM Tris HCl buffer, 10 mM MgCl2, 1 mM EDTA pH 7.4 and 100 μl of diluted membranes (50 μg of protein/assay) and at least 8-10 different concentrations of examined antagonists. Incubation time was 120 min at 4° C., according to the results of previous time-course experiments.

Data set [2] concerns the target T6, human A1 adenosine receptors (Homo sapiens, UniProt P30542).
T6 sequence (P30542 1-326): T2 sequence (P30542 1-326)
As to the kind of experiment: Displacement of [^3H]CHA binding, human A1 adenosine receptors in CHO cells (agonist radioligand).

In data set [3] the target is T7, human A3 adenosine receptors (Homo sapiens, UniProt P0DMS8).
T7 sequence (P0DMS8 1-318): T5 sequence (P0DMS8 1-318)
As to conditions: for A1/A3: ratio Ki(A1)/Ki(A3), agonist radioligands.

Here are results for six compounds from US7511133B2, “Adenosine A3 receptor agonists” (King Pharmaceuticals Research and Development, Inc., priority 2003, dated 2009).

T3 sequence (P29274 whole entry): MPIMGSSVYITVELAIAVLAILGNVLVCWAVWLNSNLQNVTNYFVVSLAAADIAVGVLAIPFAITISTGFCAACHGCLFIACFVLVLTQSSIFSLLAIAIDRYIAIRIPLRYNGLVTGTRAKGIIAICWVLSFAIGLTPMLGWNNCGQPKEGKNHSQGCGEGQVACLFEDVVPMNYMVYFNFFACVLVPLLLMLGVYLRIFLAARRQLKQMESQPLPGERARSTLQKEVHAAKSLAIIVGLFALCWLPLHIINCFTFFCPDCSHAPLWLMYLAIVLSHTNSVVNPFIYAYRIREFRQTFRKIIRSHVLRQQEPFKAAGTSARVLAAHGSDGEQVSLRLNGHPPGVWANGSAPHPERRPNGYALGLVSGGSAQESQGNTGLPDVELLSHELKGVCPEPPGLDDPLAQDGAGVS
T1 sequence (P29274 whole entry): as above

Consider `CCNC(=O)[C@H]1O[C@@H](n2cnc3c(NC(=O)Nc4ccc(S(=O)(=O)N5CCOCC5)cc4)ncnc32)C(O)C1O` (stereo partly drawn) [Compound 84, 1-Deoxy-1-[6-[[[[4-[(morpholine-1-yl)sulfonyl]phenyl]amino]carbonyl]amino]-9H-purin-9-yl]-N-ethyl-β-D-ribofuranuronamide], for which the melting point was in the range of 204 to 205 °C. In addition, the Ki in data set [1] is more than 1000 nM. The inhibition constant (Ki) on human A1 receptors was more than 1000 nM. The inhibition constant (Ki) on human A2A receptors was more than 1000 nM. Moreover, at human hA2B receptors, the Ki is more than 1000 nM. For the same compound, the Ki at human A3 receptors was determined as 198 nM. The compound further returned a Ki in data set [2] of 725 nM. Besides, in data set [3], affinity was put at a Ki of 20 nM and the A1/A3 was 36.25.
`CCNC(=O)[C@H]1O[C@@H](n2cnc3c(NC(=O)Nc4ccc(S(=O)(=O)NCC)cc4)ncnc32)[C@H](O)[C@@H]1O` [Compound 85, 1-Deoxy-1-[6-[[[[4-[N-(ethyl)aminosulfonyl]phenyl]amino]-carbonyl]amino]-9H-purin-9-yl]-N-ethyl-β-D-ribofuranuronamide]: the melting point fell in the range of 180 to 183 °C. Moreover, the Ki in data set [1] was more than 1000 nM. Also, at human A1 receptors, the Ki was more than 1000 nM. For the same compound, the Ki at human A2A receptors is more than 1000 nM. Also, the inhibition constant (Ki) at human hA2B receptors was more than 1000 nM. Besides, at human A3 receptors, the inhibition constant (Ki) turned out to be 237 nM. Also, the Ki in data set [2] amounted to 250 nM. Also, in data set [3], the inhibitory constant (Ki) was 23 nM and the A1/A3 was determined as 10.86.
Compound `CCCCCNS(=O)(=O)c1ccc(NC(=O)Nc2ncnc3c2ncn3[C@@H]2O[C@H](C(=O)NCC)[C@@H](O)[C@H]2O)cc1` [Compound 87, 1-Deoxy-1-[6-[[[[4-[N-(pentyl)aminosulfonyl]phenyl]-amino]carbonyl]amino]-9H-purin-9-yl]-N-ethyl-β-D-ribofuranuronamide] yielded a melting point of 199 °C. Also, in data set [1], the Ki is more than 1000 nM. Further, the Ki at human A1 receptors is more than 1000 nM. At human A2A receptors, the Ki was more than 1000 nM. On human hA2B receptors, the inhibitory constant (Ki) is more than 1000 nM. Also, at human A3 receptors, the Ki was 886 nM. Besides, the Ki in data set [2] stood at 445 nM. In data set [3], the affinity, expressed as Ki, was 80 nM and the A1/A3 is 5.56.
On to `CCNC(=O)[C@H]1O[C@@H](n2cnc3c(NC(=O)Nc4ccc(S(=O)(=O)NC5CC5)cc4)ncnc32)[C@H](O)[C@@H]1O` [Compound 89, 1-Deoxy-1-[6-[[[[4-[N-(cyclopropyl)aminosulfonyl]phenyl]amino]-carbonyl]-amino]-9H-purin-9-yl]-N-ethyl-β-D-ribofuranuronamide], for which the melting point was 180 °C (dec.). Also, the Ki in data set [1] was more than 1000 nM. For the same compound, the inhibition constant Ki on human A1 receptors is more than 1000 nM. Also, the Ki on human A2A receptors is more than 1000 nM. The Ki at human hA2B receptors is more than 1000 nM. The inhibitory constant (Ki) on human A3 receptors stood at 340 nM. The same compound gave a Ki in data set [2] of 290 nM. In data set [3], the inhibition constant Ki came to 25 nM and the A1/A3 stood at 11.6.
In turn, `CCNC(=O)[C@H]1O[C@@H](n2cnc3c(NC(=O)Nc4ccc(S(=O)(=O)NC(C)(C)C)cc4)ncnc32)[C@H](O)[C@@H]1O` [Compound 92, 1-Deoxy-1-[6-[[[[4-[N-(1,1-dimethylethyl)aminosulfonyl]phenyl]amino]-carbonyl]amino]-9H-purin-9-yl]-N-ethyl-β-D-ribofuranuronamide] showed a melting point of 185 °C. Also, the inhibition constant (Ki) in data set [1] is more than 1000 nM. Moreover, the inhibitory constant (Ki) at human A1 receptors is more than 1000 nM. At human A2A receptors, the Ki is more than 1000 nM. Also, the Ki on human hA2B receptors is more than 1000 nM. Moreover, the Ki at human A3 receptors was found to be 330 nM. In addition, the affinity in data set [2], expressed as Ki, was 250 nM. Besides, in data set [3], the affinity corresponds to a Ki of 20 nM and the A1/A3 was 12.5.
Regarding `CCNC(=O)[C@H]1O[C@@H](n2cnc3c(NC(=O)Nc4ccc(S(=O)(=O)NC5CCCC5)cc4)ncnc32)[C@H](O)[C@@H]1O` [Compound 95, 1-Deoxy-1-[6-[[[[4-[N-(cyclopentyl)aminosulfonyl]phenyl]-amino]carbonyl]amino]-9H-purin-9-yl]-N-ethyl-β-D-ribofuranuronamide], the Ki is more than 1000 nM in data set [1]; more than 1000 nM at human A1 receptors; more than 1000 nM at human A2A receptors; more than 1000 nM on human hA2B receptors; 140 nM at human A3 receptors; 415 nM in data set [2]. This compound showed an inhibition constant (Ki) in data set [3] of 24 nM.
